11 compounds from patent US12594276B2, “Inhibitors of human immunodeficiency virus replication” (ViiV Healthcare UK (No.5) Limited, priority 2024, dated 2026) can be followed below.

As usually defined, the CC50 is the concentration giving 50% cytotoxicity. For orientation: EC50 means the concentration that produces a half-maximal response.

Data set [1] in a line: Compound cytotoxicity, XTT-based colorimetric assay. In kind it is cell-based. The conditions noted are these: human; uninfected MT2 cells, day 4, XTT; read-out: CC50. The essentials: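 CC50 derived from XTT colorimetric signal measured on day 4 in MT2 cells that were not infected. All other steps followed the antiviral assay protocol.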
(Tetrazolium assays rely on reduction of a dye to a coloured formazan, in cell work by metabolically active cells.)

Data set [2] relates to recombinant NL4-3 virus (nef section replaced with Renilla luciferase gene) in MT-2 cells. Nature of the data set: HIV cell culture assay (antiviral activity, luciferase readout). In kind it is cell-based. The conditions noted are these: Renilla, NL43, MT-2 cells infected for 4-5 days with recombinant NL4-3 Renilla luciferase virus. Put shortly:
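Compound activity was measured as reduction of luciferase in MT-2 cells infected for 4-5 days with serially diluted compound present. EC50 values were calculated with the median effect equation.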

As for `Cc1cc(C2(F)CCC(F)(F)CC2)nc2nc([C@H](Cc3cc(F)cc(F)c3)NC(=O)Cn3nc(C(F)F)c4c3C(F)(F)[C@@H]3C[C@H]43)n(-c3ccc(Cl)c4c(NS(C)(=O)=O)nn([C@@H](C)CN5C[C@H](F)C[C@H](F)C5)c34)c(=O)c12` (atropisomer, axis not shown; (P)) [Example 753, N-[(1S)-1-[(3P)-3-{4-chloro-1-[(2S)-1-[(3R,5S)-3,5-difluoropiperidin-1-yl]propan-2-yl]-3-methanesulfonamido-1H-indazol-7-yl}-5-methyl-4-oxo-7-(1,4,4-trifluorocyclohexyl)-3H,4H-pyrido[2,3-d]pyrimidin-2-yl]-2-(3,5-difluorophenyl)ethyl]-2-[(2S,4R)-9-(difluoromethyl)-5,5-difluoro-7,8-diazatricyclo[4.3.0.0^2,^4]nona-1(6),8-dien-7-yl]acetamide], in data set [1], the CC50 at 4 days was above 20 nM. In addition, the EC50 in data set [2] amounted to 0.026 nM.

On to `COCCNc1cc(C2CCC(F)(F)CC2)nc2nc([C@H](Cc3cc(F)cc(F)c3)NC(=O)Cn3nc(C(F)F)c4c3C(F)(F)[C@@H]3C[C@H]43)n(-c3ccc(Cl)c4c(NS(C)(=O)=O)nn(CCN5CCC(F)CC5)c34)c(=O)c12` (atropisomer, axis not shown; (P)) [Example 415, N-[(1S)-1-[(3P)-3-{4-chloro-1-[2-(4-fluoropiperidin-1-yl)ethyl]-3-methanesulfonamido-1H-indazol-7-yl}-7-(4,4-difluorocyclohexyl)-5-[(2-methoxyethyl)amino]-4-oxo-3H,4H-pyrido[2,3-d]pyrimidin-2-yl]-2-(3,5-difluorophenyl)ethyl]-2-[(2S,4R)-9-(difluoromethyl)-5,5-difluoro-7,8-diazatricyclo[4.3.0.0^2,^4]nona-1(6),8-dien-7-yl]acetamide], for which the cytotoxic concentration (CC50) at 4 days in data set [1] was above 20 nM. Further, the EC50 in data set [2] came to 0.013 nM.

On to `COCCCn1nc(NS(C)(=O)=O)c2c(Cl)ccc(-n3c([C@H](Cc4cc(F)cc(F)c4)NC(=O)Cn4nc(C(F)F)c5c4C(F)(F)[C@@H]4C[C@H]54)nc4nc(C5CCC(F)(F)CC5)cc(CN5CCC(F)(F)CC5)c4c3=O)c21` (atropisomer, axis not shown; (P)) [Example 489, N-[(1S)-1-[(3P)-3-[4-chloro-3-methanesulfonamido-1-(3-methoxypropyl)-1H-indazol-7-yl]-7-(4,4-difluorocyclohexyl)-5-[(4,4-difluoropiperidin-1-yl)methyl]-4-oxo-3H,4H-pyrido[2,3-d]pyrimidin-2-yl]-2-(3,5-difluorophenyl)ethyl]-2-[(2S,4R)-9-(difluoromethyl)-5,5-difluoro-7,8-diazatricyclo[4.3.0.0^2,4]nona-1(6),8-dien-7-yl]acetamide], for which the CC50 at 4 days in data set [1] is above 20 nM. For the same compound, in data set [2], the EC50 was 0.018 nM.

Take `COCCCn1nc(NS(C)(=O)=O)c2c(Cl)ccc(-n3c([C@H](Cc4cc(F)cc(F)c4)NC(=O)Cn4nc(C(F)F)c5c4C(F)(F)[C@@H]4C[C@H]54)nc4nc(C5CCC(F)(F)CC5)cc(NCCCN5CCCCC5)c4c3=O)c21` (atropisomer, axis not shown; (P)) [Example 519, N-[(1S)-1-[(3P)-3-[4-chloro-3-methanesulfonamido-1-(3-methoxypropyl)-1H-indazol-7-yl]-7-(4,4-difluorocyclohexyl)-4-oxo-5-{[3-(piperidin-1-yl)propyl]amino}-3H,4H-pyrido[2,3-d]pyrimidin-2-yl]-2-(3,5-difluorophenyl)ethyl]-2-[(2S,4R)-9-(difluoromethyl)-5,5-difluoro-7,8-diazatricyclo[4.3.0.0^2,^4]nona-1(6),8-dien-7-yl]acetamide]: in data set [1], the CC50 at 4 days is above 20 nM. For the same compound, the EC50 in data set [2] was 0.024 nM.

Regarding `Cc1cc(C2CCC(F)(F)CC2)nc2nc([C@H](Cc3cc(F)cc(F)c3)NC(=O)Cn3nc(C(F)F)c4c3C(F)(F)[C@@H]3C[C@H]43)n(-c3ccc(Cl)c4c(NS(C)(=O)=O)nn(CCOCC(F)(F)F)c34)c(=O)c12` (atropisomer, axis not shown; (P)) [Example 72, N-[(1S)-1-[(3P)-3-{4-chloro-3-methanesulfonamido-1-[2-(2,2,2-trifluoroethoxy)ethyl]-1H-indazol-7-yl}-7-(4,4-difluorocyclohexyl)-5-methyl-4-oxo-3H,4H-pyrido[2,3-d]pyrimidin-2-yl]-2-(3,5-difluorophenyl)ethyl]-2-[(2S,4R)-9-(difluoromethyl)-5,5-difluoro-7,8-diazatricyclo[4.3.0.0^2,^4]nona-1(6),8-dien-7-yl]acetamide], the CC50 at 4 days in data set [1] is above 50 nM. For the same compound, in data set [2], the EC50 was 0.029 nM.

With `Cc1cc(C2CCC(F)(F)CC2)nc2nc([C@H](Cc3cc(F)cc(F)c3)NC(=O)Cn3nc(C4CC4)c4c3C(F)(F)[C@@H]3C[C@H]43)n(-c3ccc(Cl)c4c(NS(C)(=O)=O)nn(CCN5CCOCC5)c34)c(=O)c12` (atropisomer, axis not shown; (P)) [Example 112, N-[(1S)-1-[(3P)-3-{4-chloro-3-methanesulfonamido-1-[2-(morpholin-4-yl)ethyl]-1H-indazol-7-yl}-7-(4,4-difluorocyclohexyl)-5-methyl-4-oxo-3H,4H-pyrido[2,3-d]pyrimidin-2-yl]-2-(3,5-difluorophenyl)ethyl]-2-[(2S,4R)-9-cyclopropyl-5,5-difluoro-7,8-diazatricyclo[4.3.0.0^2,^4]nona-1(6),8-dien-7-yl]acetamide], the CC50 at 4 days in data set [1] is above 50 nM. Further, the EC50 in data set [2] came to 0.013 nM.

On to `Cc1cc(C2(F)CCC(F)(F)CC2)nc2nc([C@H](Cc3cc(F)cc(F)c3)NC(=O)Cn3nc(C4CC4)c4c3C[C@@H]3C[C@H]43)n(-c3ccc(Cl)c4c(NS(C)(=O)=O)nn([C@@H](C)CN5C[C@H](F)C[C@H](F)C5)c34)c(=O)c12` (relative stereo) [Example 754, N-[(1S)-1-[(3P)-3-{4-chloro-1-[(2S)-1-[(3R,5S)-3,5-difluoropiperidin-1-yl]propan-2-yl]-3-methanesulfonamido-1H-indazol-7-yl}-5-methyl-4-oxo-7-(1,4,4-trifluorocyclohexyl)-3H,4H-pyrido[2,3-d]pyrimidin-2-yl]-2-(3,5-difluorophenyl)ethyl]-2-[(2R*,4R*)-9-cyclopropyl-7,8-diazatricyclo[4.3.0.0^2,^4]nona-1(6),8-dien-7-yl]acetamide], for which the 50% cytotoxic concentration (CC50) at 4 days in data set [1] was above 20 nM. Moreover, the EC50 in data set [2] was 0.075 nM.

On to `Cc1cc(C2CCC(F)(F)CC2)nc2nc([C@H](Cc3cc(F)cc(F)c3)NC(=O)Cn3nc(C(F)F)c4c3C(F)(F)[C@@H]3C[C@H]43)n(-c3ccc(Cl)c4c(NS(C)(=O)=O)nn(CCN5CCCC5)c34)c(=O)c12` (atropisomer, axis not shown; (P)) [Example 266, N-[(1S)-1-[(3P)-3-{4-chloro-3-methanesulfonamido-1-[2-(pyrrolidin-1-yl)ethyl]-1H-indazol-7-yl}-7-(4,4-difluorocyclohexyl)-5-methyl-4-oxo-3H,4H-pyrido[2,3-d]pyrimidin-2-yl]-2-(3,5-difluorophenyl)ethyl]-2-[(2S,4R)-9-(difluoromethyl)-5,5-difluoro-7,8-diazatricyclo[4.3.0.0^2,^4]nona-1(6),8-dien-7-yl]acetamide], for which the CC50 at 4 days in data set [1] was above 50 nM. Further, in data set [2], the EC50 stood at 0.034 nM.

With `CS(=O)(=O)Nc1nn(CCN2CCC(F)(F)C2)c2c(-n3c([C@H](Cc4cc(F)cc(F)c4)NC(=O)Cn4nc(C(F)F)c5c4C(F)(F)[C@@H]4C[C@H]54)nc4nc(C5CCC(F)(F)CC5)cc(C5CC5)c4c3=O)ccc(Cl)c12` (atropisomer, axis not shown; (P)) [Example 354, N-[(1S)-1-[(3P)-3-{4-chloro-1-[2-(3,3-difluoropyrrolidin-1-yl)ethyl]-3-methanesulfonamido-1H-indazol-7-yl}-5-cyclopropyl-7-(4,4-difluorocyclohexyl)-4-oxo-3H,4H-pyrido[2,3-d]pyrimidin-2-yl]-2-(3,5-difluorophenyl)ethyl]-2-[(2S,4R)-9-(difluoromethyl)-5,5-difluoro-7,8-diazatricyclo[4.3.0.0^2,^4]nona-1(6),8-dien-7-yl]acetamide], the CC50 at 4 days in data set [1] is above 50 nM. Also, the EC50 in data set [2] was 0.022 nM.

Regarding `Cc1cc(C2(F)CCC(F)(F)CC2)nc2nc([C@H](Cc3cc(F)cc(F)c3)NC(=O)Cn3nc(C(F)F)c4c3C(F)(F)[C@@H]3C[C@H]43)n(-c3ccc(Cl)c4c(NS(C)(=O)=O)nn(C[C@@H](C)N5C[C@H](F)C[C@H](F)C5)c34)c(=O)c12` (atropisomer, axis not shown; (P)) [Example 697, N-[(1S)-1-[(3P)-3-{4-chloro-1-[(2R)-2-[(3R,5S)-3,5-difluoropiperidin-1-yl]propyl]-3-methanesulfonamido-1H-indazol-7-yl}-5-methyl-4-oxo-7-(1,4,4-trifluorocyclohexyl)-3H,4H-pyrido[2,3-d]pyrimidin-2-yl]-2-(3,5-difluorophenyl)ethyl]-2-[(2S,4R)-9-(difluoromethyl)-5,5-difluoro-7,8-diazatricyclo[4.3.0.0^2,^4]nona-1(6),8-dien-7-yl]acetamide], the CC50 at 4 days in data set [1] was above 20 nM. Also, the EC50 in data set [2] is 0.009 nM.

Consider `Cc1cc(C2(F)CCC(F)(F)CC2)nc2nc([C@H](Cc3cc(F)cc(F)c3)NC(=O)Cn3nc(C4CC4)c4c3C[C@@H]3C[C@H]43)n(-c3ccc(Cl)c4c(NS(C)(=O)=O)nn(C[C@H](C)N5C[C@@H](C)O[C@@H](C)C5)c34)c(=O)c12` (relative stereo) [Example 722, N-[(1S)-1-[(3P)-3-{4-chloro-1-[(2S)-2-[(2R,6S)-2,6-dimethylmorpholin-4-yl]propyl]-3-methanesulfonamido-1H-indazol-7-yl}-5-methyl-4-oxo-7-(1,4,4-trifluorocyclohexyl)-3H,4H-pyrido[2,3-d]pyrimidin-2-yl]-2-(3,5-difluorophenyl)ethyl]-2-[(2R*,4R*)-9-cyclopropyl-7,8-diazatricyclo[4.3.0.0^2,^4]nona-1(6),8-dien-7-yl]acetamide], for which the CC50 at 4 days in data set [1] is above 20 nM. The EC50 in data set [2] turned out to be 0.007 nM.
